Read-outs that look alike come from different tables or passages of the source.
Columns and labels:
[1] = test system: MCF-7 primary breast adenocarcinoma cells
Procedure: The MCF-7 cells were seeded in six-well plates (150,000 cells/well), grown overnight (37° C., 5% CO2) during which they attached to the bottom plate. The cells were then treated with compound D5 (RS5982) or compound RS6008 at concentrations of 10 μM. 20 μM or 50 μM. In the negative and positive control experiments, the cells were treated with 0.25% DMSO and 1 μM of Paclitaxel, respectively. […] Finally, for each time point, the viable cell counts were plotted relatively to the number of viable cells measured in the presence of 0.25% DMSO.

[2] = target: Ndc80 kinetochore subcomplex-MT binding (Homo sapiens, UniProt O14777); conditions: Ndc80 subcomplex:MTs 5 nM:10 nM; FIG. 3
Chain of Ndc80 kinetochore subcomplex-MT binding (O14777 whole entry): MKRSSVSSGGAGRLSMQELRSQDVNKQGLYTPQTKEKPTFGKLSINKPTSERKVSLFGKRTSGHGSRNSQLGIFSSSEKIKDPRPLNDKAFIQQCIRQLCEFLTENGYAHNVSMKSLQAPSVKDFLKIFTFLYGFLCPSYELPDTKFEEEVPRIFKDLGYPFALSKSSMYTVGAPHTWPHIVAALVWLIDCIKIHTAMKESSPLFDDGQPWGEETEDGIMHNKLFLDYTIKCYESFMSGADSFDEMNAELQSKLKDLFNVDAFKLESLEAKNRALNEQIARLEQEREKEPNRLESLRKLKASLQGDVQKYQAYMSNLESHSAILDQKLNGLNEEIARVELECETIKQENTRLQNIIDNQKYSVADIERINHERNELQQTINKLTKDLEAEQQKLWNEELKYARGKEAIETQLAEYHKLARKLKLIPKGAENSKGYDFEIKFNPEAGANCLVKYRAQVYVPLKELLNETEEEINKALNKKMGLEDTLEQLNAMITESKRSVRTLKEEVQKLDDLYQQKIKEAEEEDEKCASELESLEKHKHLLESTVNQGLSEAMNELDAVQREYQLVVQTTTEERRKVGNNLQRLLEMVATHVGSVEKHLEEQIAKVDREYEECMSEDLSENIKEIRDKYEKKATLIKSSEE
Chain of Ndc80 kinetochore subcomplex-MT binding (Q9BZD4 whole entry partner): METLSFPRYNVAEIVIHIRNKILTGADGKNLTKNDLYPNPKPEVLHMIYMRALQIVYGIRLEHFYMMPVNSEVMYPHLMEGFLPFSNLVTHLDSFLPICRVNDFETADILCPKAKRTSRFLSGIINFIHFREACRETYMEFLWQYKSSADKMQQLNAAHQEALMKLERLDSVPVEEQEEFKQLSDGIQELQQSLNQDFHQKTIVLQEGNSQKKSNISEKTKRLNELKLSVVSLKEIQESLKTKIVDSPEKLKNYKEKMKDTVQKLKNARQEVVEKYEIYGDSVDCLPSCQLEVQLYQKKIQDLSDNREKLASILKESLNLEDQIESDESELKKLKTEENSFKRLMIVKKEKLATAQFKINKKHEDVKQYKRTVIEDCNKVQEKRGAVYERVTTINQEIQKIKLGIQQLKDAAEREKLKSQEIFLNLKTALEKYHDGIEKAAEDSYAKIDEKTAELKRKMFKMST
Chain of Ndc80 kinetochore subcomplex-MT binding (Q8NBT2 whole entry partner): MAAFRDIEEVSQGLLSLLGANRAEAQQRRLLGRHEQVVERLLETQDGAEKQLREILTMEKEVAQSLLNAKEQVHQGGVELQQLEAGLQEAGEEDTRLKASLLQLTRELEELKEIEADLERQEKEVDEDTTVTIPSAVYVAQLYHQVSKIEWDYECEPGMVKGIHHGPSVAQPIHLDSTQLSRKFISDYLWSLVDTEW
Chain of Ndc80 kinetochore subcomplex-MT binding (Q9HBM1 whole entry partner): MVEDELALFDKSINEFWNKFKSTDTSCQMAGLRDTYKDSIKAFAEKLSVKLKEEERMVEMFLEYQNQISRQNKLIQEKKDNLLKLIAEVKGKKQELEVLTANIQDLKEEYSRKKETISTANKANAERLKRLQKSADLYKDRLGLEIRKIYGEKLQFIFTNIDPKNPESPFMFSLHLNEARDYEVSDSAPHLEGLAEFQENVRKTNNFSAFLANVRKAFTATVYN
Excerpt: Next, the Ndc80 kinetochore subcomplex was bound to AlphaScreen® acceptor beads. In parallel, biotinylated and taxol-stabilised MTs were bound to streptavidin-covered AlphaScreen® donor beads. […] A decrease in light emission is caused by abrogated Ndc80 kinetochore subcomplex-MT binding.
The recombinant His6-tagged Ndc80 kinetochore subcomplex was bound to AlphaScreen® (Amplified Luminescent Proximity Homogeneous Assay Screen) Ni^2+-acceptor beads. In parallel, biotinylated and taxol-stabilised MTs (Cytoskeleton) were bound to streptavidin-covered AlphaScreen® donor beads (Perkin Elmer). […] A decrease in or loss of light emission is caused by a reduced or total loss of Ndc80 kinetochore subcomplex-MT binding.

[3] = test system: MCF-7 primary breast adenocarcinoma cells; conditions: for cell proliferation (summary statement): combined experimental findings
Procedure: The MCF-7 cells were seeded in six-well plates (150,000 cells/well), grown overnight (37° C., 5% CO2) during which they attached to the bottom plate. The cells were then treated with compound D5 (RS5982) at concentrations of 10 μM, 20 μM or 50 μM. In the negative and positive control experiments, the cells were treated with 0.25% DMSO and 1 μM of Paclitaxel, respectively. After 24 h and 48 h of incubation, the cells were pulse-labeled (30 min) with 10 μM of bromodeozyuridine (BrdU; stains actively replicating DNA), collected, and fixed with 95% ethanol. Next, the cells were treated with a BrdU-specific antibody (1:5 dilution, BD Bioscience 347580) and incubated for 1 h at room temperature. The secondary antibody used was AF488 Donkey anti mouse (dilution 1:50), which was incubated for 1 h at room temperature. Total DNA was stained overnight (4° C.) with 2.5 μg/ml of propidium iodide. Fluorescence-activated cell sorting (FACS) analysis next allowed the quantification of cells occurring in various stages of the cell cycle. Specifically, measurements were performed using MACSquant FACS (Miltenyi Biotech), and analysed by FlowJo software (Ashland). The G2/M cell cycle stage was evaluated by DNA content and negativity for BrdU incorporation, to avoid an overlap between G2 and late S-phase. The number of G2/M phase cells were plotted relative to that measured in the presence of 0.25% DMSO at each time point (fold change values=1).

[4] = test system: MCF-7 primary breast adenocarcinoma cells; conditions: 10 μM, versus 0.1% DMSO, FIG. 7A-C
Procedure: The MCF-7 cells were seeded in six-well plates (300,000 cells/well), grown overnight (37° C., 5% CO2) during which they attached to the bottom plate. […] The cells were then fixated (10 min) with ice cold 100% methanol, washed twice with phosphate-buffered saline (PBS), and incubated with 3% (w/v) bovine serum albumin (BSA) in PBS containing 0.05% Tween 20 (room temperature, 1 h). Next, the cells were incubated (room temperature, 1 h) with human CREST patient serum (1:30 dilution, Antibodies Incorporated) to mark kinetochores, and mouse monoclonal anti-α-tubulin antibody (clone B512, 1:1000 dilution, Sigma) to mark microtubules, followed by incubation (room temperature, 30 min) with a secondary anti-mouse or anti-human IgG antibody that was conjugated either to chromophore AF647 (1:500, Invitrogen), AF488 (1:500 dilution, Invitrogen). DNA was stained with 0.1 μg/ml 4,6-diamidino-2-phenylindole (DAPI, Sigma Aldrich) and coverslips were mounted with Prolong Diamond Antifade (P36965, Invitrogen). To perform immunofluorescence imaging, the cells were captured on a confocal Nikon Eclipse Ti2-Spinning Disc V2 microscope (100× objective, NA=1.45, Nikon) equipped with an Andor iXon Ultra EMCCD camera. Images, acquired as Z-stacks (0.15 μm for each stack; about 80 stacks for mitotic cells) and analysed with ImageJ (Fiji) v1.53f51.

## Cc1ccc(NC(=O)c2cc(-c3ccc(C)o3)nc3ccccc23)c(C)c1 [D5, N-(2,4-Dimethylphenyl)-2-(5-methylfuran-2-yl) quinoline-4-carboxamide]
[1]; 10, 20 or 50 μM, 24, 48, 72 h, relative to 0.25% DMSO, FIG. 4
  cell viability: dose (D5)-dependent decrease in cell viability
[2]
  inhibition in the biochemical AlphaScreen binding assay: 59.93%
[3]; 10, 20 or 50 μM, 24 and 48 h, relative to 0.25% DMSO, FIG. 5
  arrest at mitotic entry (G2/M phase): enhanced arrest at mitotic entry (G2/M phase)
[3]
  cell proliferation (summary statement): delayed cell proliferation
[4]
  anomalous kinetochore activity (unbound sister chromatids, lagging chromosomes) compared to control cells: increase in anomalous kinetochore activity

## Cc1ccc(NC(=O)c2cc(-c3ccco3)nc3ccccc23)c(C)c1 [RS6008, N-(2,4-Dimethylphenyl)-2-(furan-2-yl) quinoline-4-carboxamide]
[1]; 50 μM, FIG. 6
  cell viability: strong decrease in cell viability
[3]
  cell proliferation (summary statement): delayed cell proliferation

## Cc1ccc(-c2cc(C(=O)Nc3ccc(C(F)(F)F)cc3C(F)(F)F)c3ccccc3n2)o1 [RS6648, N-(2,4-bis(Trifluoromethyl)phenyl)-2-(5-methylfuran-2-yl) quinoline-4-carboxamide]
[3]
  cell proliferation (summary statement): delayed cell proliferation
[4]
  anomalous kinetochore activity (unbound sister chromatids, lagging chromosomes) compared to control cells: increase in anomalous kinetochore activity

Reference: patent US20250074880A1, “NOVEL QUINOLINE DERIVATIVES AND USES THEREOF” (Istituto Europeo di Oncologia S.r.l., priority 2021, published 2025)
